We go through 1 substance from US20140220680A1, “XENO-FREE AND A FEEDER FREE SELF-RENEWAL EXTRACELLULAR MATRIX FOR LONG-TERM MAINTENANCE OF UNDIFFERENTIATED HUMAN PLURIPOTENT STEM CELLS AND METHOD OF SYNTHESIZING THE SAME” (ROYAN RESEARCH, priority 2013, published 2014).

Experiment [1] deals with Rho-associated Coiled Kinase (ROCK). To be noted: stated with the concentration used; no test described; cited from earlier work.
The next experiment has as its system Royan H5 hESCs. The experiment is described as follows: Plating efficiency (PE) of hESC clumps on coated plates, day 7. The experiment is classed as cell-based, human. How it is done: The Matrigel (MG) was used as a positive control in all experiments. In the first phase, with respect to table 1, the Royan H5 cell line was cultured in CM coated plates (six-well, TPP, 92006). The CM was prepared by either 24 h or 72 h incubation of neurobasal medium (Invitrogen, 21103049) supplemented with L-Gln, β-ME, NEAAs and ITS on human dermal fibroblast (HDFs) feeder layers. The HDFs were inactivated by mitomycin C for 2 h. The mitomycin C was used with a concentration of 10 μg/ml (Sigma-Aldrich, M0503). The feeder cells were cultured at high densities and at low densities in 25 cm^2 T flasks (TPP, 90025) in 4 ml of conditioned medium (160 μl/cm^2). The high density comprised of 50000 cells/cm^2 and the low density comprised of 5000 cells/cm^2. The plates were exposed to CM for either 5 min or 150 min while coating. […]
The plating efficiency (PE) and grading morphology were conducted in nine replications. […] Results were expressed as mean±standard deviation (SD). […] The PE (based on the ratio of undifferentiated […] colonies formed per initially seeded hESCs and hiPSCs clumps) was calculated under phase contrast inverted microscope (CKX 41, Olympus). The cloning efficiency (based on the ratio of ALP-positive colonies formed per initially seeded hESCs and hiPSCs single cells) was calculated by ImageJ software version 1.4. […]

As to Y-27632 dihydrochloride monohydrate, the EC50 (in general, the concentration at which the effect is half-maximal) in experiment [1] is 800 nM. Further, the plating efficiency increase with Royan H5 hESCs (ROCK inhibitor in MG compared to ROCK inhibitor in culture medium only) lay within 1.5 to 2 fold. The “plating and cloning efficiency” value in the experiment with Royan H5 hESCs (ROCKi added to ECM (MG) vs added to medium) was “increased plating and cloning efficiency”.
